According to US20240208968A1, “ALPHA V BETA 6 AND ALPHA V BETA 1 INTEGRIN INHIBITORS AND USES THEREOF” (DiCE Molecules SV, Inc., priority 2021, published 2024):

Legend:
αvβ1 = αvβ1 (Homo sapiens, UniProt P05556+P06756); assay: Solid Phase Integrin αvβ1 Assay; assay type: binding
Method in brief: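 Compound competes for αvβ1 binding to immobilized TGFb1-LAP (1 µg/mL coat) in Mn2+ (1 mM MnCl2), 2% BSA binding buffer over 90 min at room temperature, integrin added at 0.2 µg/mL. Read-out: streptavidin-HRP/TMB; IC50 from Levenberg-Marquardt four-parameter fit.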

αvβ6 = αvβ6 (Homo sapiens, UniProt P06756+P18564); assay: Solid Phase Integrin αvβ6 Assay; assay type: binding
αvβ6, sequence (P06756 31-992 limits assumed): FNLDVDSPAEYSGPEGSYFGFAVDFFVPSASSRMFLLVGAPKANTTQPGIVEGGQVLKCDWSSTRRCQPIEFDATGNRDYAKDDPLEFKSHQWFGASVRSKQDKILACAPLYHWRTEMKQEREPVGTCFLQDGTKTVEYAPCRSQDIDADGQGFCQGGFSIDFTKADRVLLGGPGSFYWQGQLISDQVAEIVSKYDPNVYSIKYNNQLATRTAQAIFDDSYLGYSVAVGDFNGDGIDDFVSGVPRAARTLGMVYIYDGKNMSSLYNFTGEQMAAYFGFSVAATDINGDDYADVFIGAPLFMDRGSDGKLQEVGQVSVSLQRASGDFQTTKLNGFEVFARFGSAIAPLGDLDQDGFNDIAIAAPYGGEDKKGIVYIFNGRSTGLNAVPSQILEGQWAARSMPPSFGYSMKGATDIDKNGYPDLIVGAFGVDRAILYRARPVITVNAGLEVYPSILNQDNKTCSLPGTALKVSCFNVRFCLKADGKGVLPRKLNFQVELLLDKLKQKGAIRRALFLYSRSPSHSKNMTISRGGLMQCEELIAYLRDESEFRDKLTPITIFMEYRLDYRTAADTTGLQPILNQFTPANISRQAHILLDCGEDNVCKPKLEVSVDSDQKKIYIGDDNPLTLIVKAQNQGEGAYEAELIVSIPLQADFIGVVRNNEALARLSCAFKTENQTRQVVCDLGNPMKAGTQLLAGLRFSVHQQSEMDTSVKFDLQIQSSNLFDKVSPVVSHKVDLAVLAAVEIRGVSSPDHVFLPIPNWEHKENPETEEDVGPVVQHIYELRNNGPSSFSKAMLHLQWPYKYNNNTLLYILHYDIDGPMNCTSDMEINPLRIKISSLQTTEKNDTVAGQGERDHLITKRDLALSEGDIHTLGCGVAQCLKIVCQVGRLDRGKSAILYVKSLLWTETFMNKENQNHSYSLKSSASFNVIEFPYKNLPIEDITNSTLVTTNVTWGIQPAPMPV
αvβ6, sequence (P18564 22-707 limits assumed): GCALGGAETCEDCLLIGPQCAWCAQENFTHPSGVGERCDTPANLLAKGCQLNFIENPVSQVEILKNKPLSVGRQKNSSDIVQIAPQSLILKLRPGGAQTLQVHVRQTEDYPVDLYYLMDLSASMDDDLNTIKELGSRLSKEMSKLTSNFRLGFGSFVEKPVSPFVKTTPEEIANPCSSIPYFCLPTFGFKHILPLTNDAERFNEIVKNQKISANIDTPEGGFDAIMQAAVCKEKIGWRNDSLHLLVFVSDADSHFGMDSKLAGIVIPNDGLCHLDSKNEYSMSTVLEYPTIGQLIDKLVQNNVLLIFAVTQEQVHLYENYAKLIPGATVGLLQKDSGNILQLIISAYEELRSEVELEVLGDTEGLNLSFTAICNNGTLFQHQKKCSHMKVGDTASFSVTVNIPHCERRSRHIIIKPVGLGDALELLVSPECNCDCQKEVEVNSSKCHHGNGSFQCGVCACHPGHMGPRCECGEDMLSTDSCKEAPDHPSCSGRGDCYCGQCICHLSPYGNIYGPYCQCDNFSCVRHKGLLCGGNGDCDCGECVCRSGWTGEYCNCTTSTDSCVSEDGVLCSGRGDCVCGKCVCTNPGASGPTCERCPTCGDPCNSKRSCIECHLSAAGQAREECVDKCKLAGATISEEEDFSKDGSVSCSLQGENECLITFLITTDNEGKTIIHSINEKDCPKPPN
Method in brief: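 Inhibition of αvβ6 binding to immobilized recombinant TGFb1-LAP (1 μg/mL coating), 1 h at room temperature with 1 mM MnCl2 in BSA/TBST buffer, integrin diluted to 0.2 μg/mL before addition. Streptavidin-HRP/TMB read-out; four-parameter logistic fitting gave IC50.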

αvβ1, sequence (P06756 31-992 limits assumed): as the sequence (P06756 31-992 limits assumed) above
αvβ1, sequence (P05556 21-728 limits assumed): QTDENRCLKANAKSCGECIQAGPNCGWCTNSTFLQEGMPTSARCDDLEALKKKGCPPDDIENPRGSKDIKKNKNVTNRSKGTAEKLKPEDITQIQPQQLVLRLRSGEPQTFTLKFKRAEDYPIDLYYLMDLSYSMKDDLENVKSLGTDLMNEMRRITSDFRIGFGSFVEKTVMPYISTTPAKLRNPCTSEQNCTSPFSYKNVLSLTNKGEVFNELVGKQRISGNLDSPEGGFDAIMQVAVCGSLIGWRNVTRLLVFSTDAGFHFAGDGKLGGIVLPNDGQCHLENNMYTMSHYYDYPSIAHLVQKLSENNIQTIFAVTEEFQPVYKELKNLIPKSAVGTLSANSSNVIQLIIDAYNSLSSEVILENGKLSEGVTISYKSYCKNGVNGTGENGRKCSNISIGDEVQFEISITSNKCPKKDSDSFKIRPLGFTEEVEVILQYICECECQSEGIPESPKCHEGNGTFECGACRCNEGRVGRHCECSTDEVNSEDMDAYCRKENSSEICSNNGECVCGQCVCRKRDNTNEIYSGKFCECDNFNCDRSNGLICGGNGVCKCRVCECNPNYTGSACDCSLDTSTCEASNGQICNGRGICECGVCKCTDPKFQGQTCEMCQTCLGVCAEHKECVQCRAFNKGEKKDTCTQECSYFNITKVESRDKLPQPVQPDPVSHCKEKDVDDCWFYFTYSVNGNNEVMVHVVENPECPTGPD

SMILES	IC50 (αvβ1)	IC50 (αvβ6)
O=C(O)C[C@@H](CO[C@@H]1CCCN(CCCc2ccc3c(n2)NCCC3)C1)c1cccc([C@@H]2CCOC2)c1 [Compound 506]	< 0.1 µM	< 0.1 µM
O=C(O)C[C@@H](CO[C@@H]1CCCN(CCCc2ccc3c(n2)NCCC3)C1)c1cccc([C@H]2CCOC2)c1 [Compound 507]	< 0.1 µM	< 0.1 µM
O=C(O)C[C@@H](CO[C@@H]1CCCN(CCCc2ccc3c(n2)NCCC3)C1)c1cc(C2CC2)ccc1F [Compound 508]	< 0.1 µM	< 0.1 µM
Cc1c[s+]([O-])c2ncnc(N[C@@H](CCO[C@@H]3CCCN(CCCc4ccc5c(n4)NCCC5)C3)C(=O)O)c12 (stereo partly shown) [Compound 509]	< 0.1 µM	< 0.1 µM
Cc1c[s+]([O-])c2ncnc(N[C@H](CCO[C@@H]3CCCN(CCCc4ccc5c(n4)NCCC5)C3)C(=O)O)c12 (stereo partly shown) [Compound 510]	> 1 µM	> 1 µM
O=C(O)[C@@H](CCO[C@@H]1CCCN(CCCc2ccc3c(n2)NCCC3)C1)Nc1ncnc2ccsc12 [Compound 511]	< 0.1 µM	< 0.1 µM
O=C(N[C@H](CCO[C@@H]1CCCN(CCCc2ccc3c(n2)NCCC3)C1)C(=O)O)c1c(F)cc(N2CCOCC2)cc1F [Compound 512]	> 1 µM	> 1 µM
O=C(O)C[C@@H](CO[C@@H]1CCCN(CCCc2ccc3c(n2)NCCC3)C1)c1cncc(C2CC2)c1 [Compound 513]	< 0.1 µM	< 0.1 µM
O=C(O)C[C@@H](CO[C@@H]1CCCN(CCCc2ccc3c(n2)NCCC3)C1)c1ccnc(C2CC2)c1 [Compound 514]	< 0.1 µM	< 0.1 µM
O=C(O)C[C@@H](CO[C@@H]1CCCN(CCCc2ccc3c(n2)NCCC3)C1)c1cccc(-n2cccn2)c1 [Compound 515]	0.1 to 1 µM	< 0.1 µM
O=C(O)[C@H](CCO[C@@H]1CCCN(CCCc2ccc3c(n2)NCCC3)C1)c1ccc(C2CC2)cc1 [Compound 516]	< 0.1 µM	< 0.1 µM
O=C(NC[C@H](C(=O)O)c1cccc(-c2ccncc2)c1)[C@@H]1CCCN(CCCc2ccc3c(n2)NCCC3)C1 [Compound 517]	< 0.1 µM	< 0.1 µM
O=C(NC[C@H](C(=O)O)c1cccc(-c2cccc(C(F)(F)F)c2)c1)[C@@H]1CCCN(CCCc2ccc3c(n2)NCCC3)C1 [Compound 518]	< 0.1 µM	< 0.1 µM
O=C(O)C[C@@H](CO[C@@H]1CCCN(CCCc2ccc3c(n2)NCCC3)C1)c1cc(F)cc(C2CC2)c1 [Compound 519]	< 0.1 µM	< 0.1 µM
O=C(O)CC(CC(=O)N[C@H]1CCN(C(=O)CCCc2ccc3c(n2)NCCC3)C1)c1ccccc1 (stereo partly shown) [Compound 520]	< 0.1 µM	0.1 to 1 µM
O=C(O)C[C@@H](CC(=O)N[C@H]1CCN(C(=O)CCCc2ccc3c(n2)NCCC3)C1)c1ccccc1 [Compound 521]	< 0.1 µM	0.1 to 1 µM
O=C(O)C[C@H](CC(=O)N[C@H]1CCN(C(=O)CCCc2ccc3c(n2)NCCC3)C1)c1ccccc1 [Compound 522]	< 0.1 µM	0.1 to 1 µM
O=C(O)C[C@H](NC(=O)[C@H]1CCCN(CCCc2ccc3c(n2)NCCC3)C1)c1ccccc1 [Compound 523]	0.1 to 1 µM	< 0.1 µM
O=C(O)CC(CC(=O)N[C@@H]1CCN(C(=O)CCCc2ccc3c(n2)NCCC3)C1)c1ccccc1 (stereo partly shown) [Compound 524]	< 0.1 µM	0.1 to 1 µM
O=C(O)CC(CC(=O)N[C@H]1CCN(CCCCc2ccc3c(n2)NCCC3)C1)c1ccccc1 (stereo partly shown) [Compound 525]	< 0.1 µM	0.1 to 1 µM
CN(CC1(C)CCCCC1)[C@@H](CNC(=O)[C@@H]1CCCN(CCCc2ccc3c(n2)NCCC3)C1)C(=O)O [Compound 527]	0.1 to 1 µM	0.1 to 1 µM

SMILES	IC50 (αvβ1)	IC50 (αvβ6)
O=C(O)C[C@H](OC[C@@H]1CCCN(CCCc2ccc3c(n2)NCCC3)C1)c1cccc(C2CC2)c1 [Compound 528]	> 1 µM	> 1 µM
O=C(O)C[C@H](NC[C@@H]1CCCN(CCCc2ccc3c(n2)NCCC3)C1)c1cccc(C2CC2)c1 [Compound 529]	0.1 to 1 µM	0.1 to 1 µM
CN(C[C@@H]1CCCN(CCCc2ccc3c(n2)NCCC3)C1)[C@@H](CC(=O)O)c1cccc(C2CC2)c1 [Compound 530]	> 1 µM	> 1 µM
O=C(O)C[C@H](NC[C@@H]1CCCN(CCCc2ccc3c(n2)NCCC3)C1)c1cccc(Br)c1 [Compound 531]	> 1 µM	> 1 µM
CN(C[C@@H]1CCCN(CCCc2ccc3c(n2)NCCC3)C1)[C@@H](CC(=O)O)c1cccc(Br)c1 [Compound 532]	> 1 µM	> 1 µM
O=C(O)C[C@H](NC(=O)[C@@H]1CCCN(CCCc2ccc3c(n2)NCCC3)C1)c1cccc([C@@H]2CCOC2)c1 [Compound 533]	< 0.1 µM	< 0.1 µM
O=C(O)C[C@H](NC(=O)[C@@H]1CCCN(CCCc2ccc3c(n2)NCCC3)C1)c1cccc([C@H]2CCOC2)c1 [Compound 534]	< 0.1 µM	< 0.1 µM
O=C(O)C[C@H](NC(=O)[C@@H]1CCCN(CCCc2ccc3c(n2)NCCC3)C1)c1cccc(OC2COC2)c1 [Compound 535]	< 0.1 µM	< 0.1 µM
O=C(O)C[C@H](NC(=O)[C@@H]1CCCN(CCCc2ccc3c(n2)NCCC3)C1)c1cccc(-n2cccc2)c1 [Compound 536]	< 0.1 µM	< 0.1 µM
COC(C)(C)C1Cc2c(cccc2C(CNC(=O)[C@@H]2CCCN(CCCc3ccc4c(n3)NCCC4)C2)C(=O)O)CO1 (stereo partly shown) [Compound 538]	< 0.1 µM	< 0.1 µM
O=C(O)C[C@H](NC(=O)[C@@H]1CCCN(CCCc2ccc3c(n2)NCCC3)C1)c1cnc2ccccc2n1 [Compound 539]	< 0.1 µM	< 0.1 µM
O=C(O)C[C@H](NC(=O)[C@@H]1CCCN(CCCc2ccc3c(n2)NCCC3)C1)c1cnc2ccccc2c1 [Compound 540]	0.1 to 1 µM	0.1 to 1 µM
O=C(O)C[C@H](NC(=O)[C@@H]1CCCN(CCCc2ccc3c(n2)NCCC3)C1)c1ccc2c(c1)C1(CC2)CC1 [Compound 541]	< 0.1 µM	< 0.1 µM
CN1CCc2cc(S(=O)(=O)N[C@@H](CNC(=O)[C@@H]3CCCN(CCCc4ccc5c(n4)NCCC5)C3)C(=O)O)ccc21 [Compound 542]	0.1 to 1 µM	< 0.1 µM
O=C(NC[C@H](NS(=O)(=O)c1cccc2c1CCC2)C(=O)O)[C@@H]1CCCN(CCCc2ccc3c(n2)NCCC3)C1 [Compound 543]	< 0.1 µM	< 0.1 µM
O=C(N[C@@H](CNC(=O)[C@@H]1CCCN(CCCc2ccc3c(n2)NCCC3)C1)C(=O)O)c1ccccc1 [Compound 544]	< 0.1 µM	< 0.1 µM
CC(C)(C(=O)N[C@@H](CNC(=O)[C@@H]1CCCN(CCCc2ccc3c(n2)NCCC3)C1)C(=O)O)c1ccccc1 [Compound 546]	< 0.1 µM	< 0.1 µM
O=C(NC[C@H](NC(=O)C1(c2ccccc2)CC1)C(=O)O)[C@@H]1CCCN(CCCc2ccc3c(n2)NCCC3)C1 [Compound 547]	< 0.1 µM	< 0.1 µM
O=C(N[C@@H](CNC(=O)[C@@H]1CCCN(CCCc2ccc3c(n2)NCCC3)C1)C(=O)O)c1cccc2c1CCC2 [Compound 549]	< 0.1 µM	< 0.1 µM
C[C@@H]1CCN(CCCc2ccc3c(n2)NCCC3)C[C@@H]1C(=O)N[C@@H](CC(=O)O)c1ccccc1 [Compound 551]	0.1 to 1 µM	< 0.1 µM
